Laboratory results as given in patent publication US20250057928A1, “VACCINE COMPOSITION FOR INDUCING ANTI-IL-23 ANTIBODY” (OSAKA UNIVERSITY, priority 2021, published 2025).
Where no end group is shown, it is not given here.

How the values were obtained:
epitope peptide = assay: Antibody titer (GMT) of serum of Macaca fascicularis, ELISA; type: in vivo; settings: 5 mg/body subcutaneous 3 times at two-week intervals, blood every two weeks until week 16
Experimental: AJP001 conjugated peptide having one of the B cell epitope sequences of SEQ ID NOs: 1-5 was dissolved in physiological saline and intradermally administered twice to BALB/c mice (female, 6-week-old, N=5-6) at 0.5 mg/body at 2-week intervals. Blood was collected before administration and 5 weeks after the initial administration, and the antibody titer against each AJP001 conjugated peptide and the binding ability to recombinant mouse IL-23 protein (rmIL-23) were measured by the ELISA method. […] After washing the wells with PBS-T, TMB solution (SIGMA) was added, the wells were allowed to stand for 30 min in the dark, the reaction was stopped by adding 0.5M H2SO4, and the absorbance at 450 nm was measured using a plate reader. The serum dilution rate that gave 1/2 (OD=1.75) of the maximum absorbance was defined as the antibody titer, and the geometric mean titer: GMT was calculated from the individual values. Binding to IL-23 protein was measured by the ELISA method in the same manner as the antibody titer, using rmIL-23 (Antibodies-online GmbH) as the solid-phased antigen and goat serum for blocking. […] Blood was collected every two weeks from the first day of administration until week 16, and the antibody titer (GMT) and binding to IL-23 of the serum at each time point were measured by the ELISA method (same method as in Example 1; the secondary antibody used was Anti-Monkey IgG (Abcam)). […]

rmIL-23 = assay: Binding of monkey antiserum to rmIL-23, ELISA; design: species or system mouse; settings: monkey antiserum 6 weeks after the initial administration; second statement of b202, FIG. 7(b) covers rhIL-23 and rmIL-23
Experimental: FIG. 7(a) is a graph showing the antibody titer (GMT) of serum collected over time from Macaca fascicularis administered with AJP001 conjugated peptide (SEQ ID NO: 6). FIG. 7(b) is a graph showing the binding ability to rhIL-23 and rmIL-23 of serum collected from the Macaca fascicularis administered with AJP001 conjugated peptide (SEQ ID NO: 6) at 6 weeks after the first administration. FIG. 7(c) is a graph showing the evaluation of neutralization activity of IgG derived from Macaca fascicularis administered with AJP001 conjugated peptide (SEQ ID NO: 6). FIG. 7(d) is a graph showing the results of epitope mapping of anti-IL-23 antibody induced by AJP001 conjugated peptide (SEQ ID NO: 6).
AJP001 conjugated peptide (SEQ ID NO: 6) was dissolved in physiological saline and subcutaneously administered to Macaca fascicularis (female, […], N=4) at 5 mg/body 3 times at two-week intervals. Blood was collected every two weeks from the first day of administration until week 16, and the antibody titer (GMT) and binding to IL-23 of the serum at each time point were measured by the ELISA method (same method as in Example 1; the secondary antibody used was Anti-Monkey IgG (Abcam)). In FIG. 7, “*” means P<0.05.

## SEQ ID NO 6: AJP001-Ahx-B cell epitope peptide conjugate; epitope SPSQPWQR (human 151-158) (not fully specified (N-terminus); listed as Homo sapiens)
Epitope peptide
  antibody titer (GMT) over time: increased from 2 weeks after the initial administration and persisted until 16 weeks
rmIL-23
  binding to rmIL-23: not observed
